Measurements published in patent US11332438B2, “Creatine prodrugs, compositions and methods of use thereof” (Ultragenyx Pharmaceutical Inc., priority 2017, dated 2022).

Legend:
[1] = Plasma stability, human plasma; type: in vitro ADME; conditions: for half-life: 37 °C, read-out: Plasma Stability Human t1/2
Experimental: (§1) The stabilities of creatine prodrugs can be evaluated in one or more in vitro systems using a variety of preparations following methods known in the art. Experimental conditions useful for the in vitro studies are described in Table 1. Prodrug is added to each preparation in triplicate. […]
(§2) Protocol for plasma stability for early screen macrocycles (Method A):
(§3) Frozen plasma was thawed by placing at 37° C. quickly and centrifuged at 3,000 rpm for 8 minutes to remove clots. Then the supernatant was pipetted and pooled as the plasma to be used in the experiment. The plasma was placed on ice until used. The test compounds and reference compounds spiking solution was prepared as a 2.5 mM test compounds spiking solution A: Add 20 μL of 10 mM test compounds stock solution to 60 μL DMSO. 0.1 mM Spiking solution B was prepared: Add 40 μL of spiking solution A to 960 μL of […] Sodium phosphate buffer with 0.5% BSA. […] For 0-min, 400 μL of ACN containing IS was added to the wells of 0-min plate and then 90 μL of plasma was added. […] 50 μL of the supernatant was transferred from each well into a 96-well sample plate containing 120 μL of ultra pure water (Millipore, ZMQS50F01) and analyzed by LC/MS.
(§4) Protocol for plasma stability (Method B):
(§5) The frozen plasma was thawed in a 37° C. water bath and then, if needed, adjusted to pH=7.4 then preheated in a 37° C. incubator. The test article was dissolved in 10% DMSO/water and spiked into plasma pre-plated into 96 well plates at a final concentration of 1 μM. Discrete incubations were performed at 37° C. and included 5 time points: t=0, 2, 5, 15, and 30 min. Samples were then crashed with 4× volume, ice cold 20% water/80% acetonitrile and spun at 4000 g for 10 mins. The supernatant was dried down and reconstituted with water and analyzed by LC-MS/MS. The half life in minute was calculated.

[2] = Liver microsome stability, mouse; type: in vitro ADME; conditions: liver microsomes, read-out: Microsome Stability Mouse t1/2
Experimental: as §1
(§6) Protocol for Microsomal Stability:
(§7) For reference compound, a 500 μM spiking solution was prepared: add 10 μL of 10 mM DMSO stock solution into 190 μL ACN. […] For test compound, a 5 mM spiking solution was prepared: add 10 μL of 10 mM DMSO stock solution into 10 μL ACN. […] NADPH stock solution (6 mM) was prepared by dissolving NADPH into buffer 0.1 M Potassium Phosphate buffer, 1.0 mM EDTA, pH 7.4. […] For 0-min, 135 μL of ACN containing IS was added to the wells of 0-min plate and then 15 μL of NADPH stock solution (6 mM) was added. 15 μL of NADPH stock solution (6 mM) was added to the samples designated as 0-, 5-, 10-, 20-, 30-min, 60-min; 15 μL of buffer 0.1 M Potassium Phosphate buffer, 1.0 mM EDTA, pH 7.4, was added to the samples designated as 60-min without NADPH. At 5-min, 10-min, 20-min, and 30-min, 60-min 135 μL of ACN containing IS was added to the wells of corresponding plates, respectively, to stop the reaction. […] 50 μL of the supernatant from each well was transferred into a 96-well sample plate containing 50 μL of ultra pure water (Millipore, ZMQS50FOI) and analyzed by LC/MS.

[3] = Plasma stability, mouse plasma; type: in vitro ADME; conditions: for half-life: 37 °C, read-out: Plasma Stability Mouse t1/2
Experimental: as §1, §2, §3, §4, §5

[4] = Liver microsome stability, human; type: in vitro ADME; conditions: liver microsomes, read-out: Microsome Stability Human t1/2
Experimental: as §1, §6, §7

[5] = Chemical stability in phosphate buffered saline (PBS); type: physicochemical; conditions: 50 μM prodrug
Experimental: (§8) Chemical stability of creatine prodrugs in phosphate buffered saline (PBS), simulated intestinal fluid (SIF) without pancreatin, simulated gastric fluid (SGF) without pepsin were determined by LC-UV, LC-CAD, LC-UV-CAD or LC-MS/MS as appropriate. Creatine prodrugs of the present disclosure (50 μM) were incubated at 37° C. according to described protocols and prodrug levels were compared between t=0, t=15, t=60, and t=120 mins by peak area ratio to determine the percentage remained at t=120 mins (2 h).
(§9) Protocol for PBS, SIF and SGF stability for screening:
(§10) Prodrugs (50 μM) were incubated in PBS, FaSSIF (Biorelevant) or FaSSGF (Biorelevant) at 37° C.

[6] = Chemical stability in simulated gastric fluid (SGF) without pepsin; type: physicochemical; conditions: 50 μM prodrug
Experimental: as §8, §9, §10

Compound: [2H]C([2H])([2H])N(CC(=O)[O-])C(=N)NC(=O)CCCCCCCCCC.[Na+] [Compound 32]
- half-life ([1]; Table 2A): > 180 min
- half-life at 10 μM ([2]; pH 7.4, Table 2A): > 145 min
- half-life ([3]; Table 2A): > 180 min
- half-life at 10 μM ([4]; pH 7.4, Table 2A): 110 min

Compound: [2H]C([2H])([2H])N(CC(=O)O)C(=NC(=O)OC(C)(C)C)NC(=O)CCCCCCCCCC [Compound 34]
- half-life ([1]; Table 2A): > 180 min
- half-life at 10 μM ([2]; pH 7.4, Table 2A): 123 min
- half-life ([3]; Table 2A): > 180 min
- half-life at 10 μM ([4]; pH 7.4, Table 2A): > 180 min

Compound: [2H]C([2H])([2H])N(CC(=O)[O-])C(=N)NC(=O)CCCCCCC.[Li+] [Compound 37]
- half-life ([1]; Table 2A): > 180 min
- half-life at 10 μM ([2]; pH 7.4, Table 2A): > 145 min
- half-life ([3]; Table 2A): > 180 min
- half-life at 10 μM ([4]; pH 7.4, Table 2A): 114 min

Compound: Cl.[2H]C([2H])([2H])N(CC(=O)OCc1oc(=O)oc1C)C(=N)NC(=O)CCCCCCCCCC [Compound 48]
- Chemical Stability PBS % T0 at 2 hours at 37 °C. ([5]; Table 2A): 97%
- Chemical Stability SGF, no enzyme % T0 at 2 hours at 37 °C. ([6]; Table 2A): 98%

Compound: Cl.[2H]C([2H])([2H])N(CC(=O)OC(C)C(C)(C)C)C(=N)NC(=O)CCCCCC (stereo not shown) [Compound 53]
- Chemical Stability PBS % T0 at 2 hours at 37 °C. ([5]; Table 2B): 64%
- Chemical Stability SGF, no enzyme % T0 at 2 hours at 37 °C. ([6]; Table 2B): 91%

Compound: Cl.[2H]C([2H])([2H])N(CC(=O)OC(C)(C)C(F)(F)F)C(=N)NC(=O)CCCCCC [Compound 55]
- Chemical Stability PBS % T0 at 2 hours at 37 °C. ([5]; Table 2B): 97%
- Chemical Stability SGF, no enzyme % T0 at 2 hours at 37 °C. ([6]; Table 2B): 94%

Compound: [2H]C([2H])([2H])N(CC(=O)[O-])C(=N)NC(=O)CCCCCCCCCO.[Na+] [Compound 58]
- half-life ([1]; Table 2B): > 180 min
- half-life at 10 μM ([2]; pH 7.4, Table 2B): > 90 min
- half-life ([3]; Table 2B): > 180 min
- half-life at 10 μM ([4]; pH 7.4, Table 2B): > 90 min

Compound: Cl.[2H]C([2H])([2H])N(CC(=O)OC(C)(C)C(F)(F)F)C(=N)NC(=O)CCCCCCCCCC [Compound 59]
- Chemical Stability PBS % T0 at 2 hours at 37 °C. ([5]; Table 2B): 101%
- Chemical Stability SGF, no enzyme % T0 at 2 hours at 37 °C. ([6]; Table 2B): 30%

Compound: O=CO.[2H]C([2H])([2H])N1CC(=O)OCCCCCCCC(=O)NC1=N [Compound BB, 5-imino-4-trideuteriomethylguanidino-1-oxa-4,6-diazacyclotetradecane-2,7-dione Formate]
- Plasma Stability Human t1/2 [1]: 9 min
- Plasma Stability Mouse t1/2 [3]: <2 min

Compound: [2H]C([2H])([2H])N1CC(=O)OCCCCCCCCC(=O)NC1=N [Compound DD, 5-imino-4-trideuteriomethyl-1-oxa-4,6-diazacyclopentadecane-2,7-dione]
- half-life ([1]; Table 2C, macrocycles): 8.3 min
- half-life ([3]; Table 2C, macrocycles): < 2 min

Compound: Cl.[2H]C([2H])([2H])N1CC(=O)OC(C)CCCCCCCCCC(=O)NC1=N (stereo not shown) [Compound K, 5-imino-4-trideuteriomethylguanidino-17-dimethyl-1-oxa-4,6-diazacycloheptadecane-2,7-dione Dihydrochloride]
- half-life ([1]; Table 2C, macrocycles): 13 min
- half-life ([3]; Table 2C, macrocycles): 2 min

Compound: Cl.[2H]C([2H])([2H])N1CC(=O)OC(CC)CCCCCCCCCC(=O)NC1=N (stereo not shown) [Compound L, 17-ethyl-5-imino-4-trideuteriomethyl-1-oxa-4,6-diazacycloheptadecane-2,7-dione Hydrochloric Acid Salt]
- half-life ([1]; Table 2C, macrocycles): 34 min
- half-life at 10 μM ([2]; pH 7.4, Table 2C): 0.6 min
- half-life ([3]; Table 2C, macrocycles): 3 min
- half-life at 10 μM ([4]; pH 7.4, Table 2C): 1.6 min

Compound: Cl.[2H]C([2H])([2H])N1CC(=O)O[C@@H](C)CCCCCCCCCC(=O)NC1=N [Compound PP, (S)-5-imino-17-methyl-4-(methyl-d3)-1-oxa-4,6-diazacycloheptadecane-2,7-dione Hydrochloride]
- half-life ([1]; Table 2C, macrocycles): 8 min
- half-life ([3]; Table 2C, macrocycles): 1.1 min

Compound: [2H]C([2H])([2H])N1CC(=O)OCCCCCCCCCCCC(=O)NC1=N [Compound QQ, 5-imino-4-trideuteriomethyl-1-oxa-4,6-diazacyclooctadecane-2,7-dione]
- Chemical Stability PBS % T0 at 2 hours at 37 °C. ([5]; Table 2C): 85%
- half-life at 10 μM ([2]; pH 7.4, Table 2C): 4 min
- Chemical Stability SGF, no enzyme % T0 at 2 hours at 37 °C. ([6]; Table 2C): 79%
- half-life at 10 μM ([4]; pH 7.4, Table 2C): 9 min

Compound: O=CO.[2H]C([2H])([2H])N1CC(=O)OCCCCCCCCCC(=O)NC1=N [Compound SS, 5-imino-4-trideuteriomethyl-1-oxa-4,6-diazacyclohexadecane-2,7-dione Formic Acid Salt]
- Chemical Stability PBS % T0 at 2 hours at 37 °C. ([5]; Table 2C): 0%
- half-life ([1]; Table 2C, macrocycles): > 90 min
- Chemical Stability SGF, no enzyme % T0 at 2 hours at 37 °C. ([6]; Table 2C): 85%
